The values that follow come from patent publication US20100136598A1, “NOVEL MESENCHYMAL PROGENITOR CELLS DERIVED FROM HUMAN BLASTOCYST-DERIVED STEM CELLS” (priority 2007, published 2010).

The test system of one data set is hBS cells. In words: Cytotoxicity test in 96-well plates, 10 days (ATP content / Resazurin). The following applies: for Ratios between the IC50 values measured using the Resazurin assay: hBS cells (reference = 1), day 10. For orientation: Resazurin is reduced to fluorescent resorufin, in cell work by metabolically active cells.
The test system of data set [1] is hBS-MP cells. The data set is described as above. The following applies: for sensitivity of hBS cells and hBS-MP cells compared to hFF cells (comparison of IC50 values): hBS and hBS-MP cells versus hFF cells; for Ratios between the IC50 values measured using the Resazurin assay: hBS-MP cells relative to hBS cells, day 10.
Method: (§1) hBS cells were dissociated into small cell aggregates and seeded into 96-well plates (Nunc, Kamstrupvej, Denmark) in 100 μl Test medium containing Knock Out DMEM supplemented with 20% Foetal bovine Serum (FBS), 1% penicillin-streptomycin, 1% Glutamax, 0.5 mmol/l β-mercaptoethanol and 1% non-essential amino acids (all Invitrogen). hBS-MP cells and hFF cells were dissociated into single cells and seeded into 96-well plates in 100 μl test medium.
(§2) After 24 hours the cytotoxicity test was started by adding 100 μl toxicity solution to the test wells that had twice the concentration as the required end concentration (day 0).
The subject of the next data set is hFF cells. The data set is described as above. As to conditions: for Ratios between the IC50 values measured using the Resazurin assay: hFF cells relative to hBS cells, day 10.
Data set [2] has as its system hBS-MP cells.
Method: as §1, §2

Each structure is given as a SMILES string. Where two headings read alike, the source gives them in different places.

Regarding `CC1=C(/C=C/C(C)=C/C=C/C(C)=C\C(=O)O)C(C)(C)CCC1` [13CRA, 13-cis-retinoic acid], the “Ratios between the IC50 values measured using the Resazurin assay” value in the data set on hBS cells is reported as 1; in the data set with hBS-MP cells [1] it was 4; in the data set on hFF cells, 10. Moreover, in the data set with hBS-MP cells [1], the “sensitivity of hBS cells and hBS-MP cells compared to hFF cells (comparison of IC50 values)” value is “much more sensitive”. Moreover, the “sensitivity of hBS cells and progenitor cells compared to hFF (dose-response curve)” value in the data set with hBS-MP cells [2] is “higher sensitivity”.
The like results for `CC1=C(/C=C/C(C)=C/C=C/C(C)=C/C(=O)O)C(C)(C)CCC1` [ATRA, all-trans-retinoic acid] were, in that order, 1, 1, 2, “much more sensitive” and “higher sensitivity”.
Consider `O=c1[nH]cc(F)c(=O)[nH]1` [5-FU, 5-fluoro-uracil], for which the “Ratios between the IC50 values measured using the Resazurin assay” value with hBS cells was determined as 1; in the data set on hBS-MP cells [1], 3; in the data set on hFF cells, 7. The “sensitivity of hBS cells and hBS-MP cells compared to hFF cells (comparison of IC50 values)” value in the data set with hBS-MP cells [2] is reported as “much more sensitive”.
For `O=C1NS(=O)(=O)c2ccccc21.[Na]` [saccharin, sodium saccharin], the toxic reaction entry in the data set on hBS cells (hBS cells, data not shown) was “no toxic reaction”; in the data set with hBS-MP cells [1] (hBS-MP cells, data not shown), “no toxic reaction”; in the data set with hFF cells (hFF cells, data not shown), “no toxic reaction”.
